The target of one assay is T1, SIG-1R (Homo sapiens, UniProt Q99720).
T1 construct: incubated with 15 nM of [^3H](+)-pentazocine in membranes preparations from Jurkat human leukemic T cells; host or cells: Jurkat human leukemic T cells (membrane preparation)
Description: In vitro binding to SIG-1R ([3H](+)-pentazocine, Jurkat cell membranes, CEREP). The following applies: for inhibition of the binding / displacement of SIG-1R radioligand (in words): no concentration stated. How it is done:
The assay was performed by CEREP (Celle l'Evescault, France) (study 100062023). SIG-1R binding was performed according to Ganapathy et al. (1999). Increasing drug concentrations (100 nM to 30 µM) were incubated with 15 nM of [^3H](+)-pentazocine in membranes preparations from Jurkat human leukemic T cells. Samples were incubated during 120 min at 37°C and nonspecific binding level was determined using 10 µM of haloperidol. S2R binding was performed according to Ganapathy et al. (1999). Increasing drug concentrations (100 nM to 30 µM) were incubated with 25 nM of [^3H]ditolyl-guanidine in membranes preparations from Jurkat human leukemic T cells. Samples were incubated during 60 min at room temperature and nonspecific binding level was determined using 10 µM of haloperidol. Assays were performed in duplicates and results were expressed as % of specific binding level.

In assay [1] the test system is panel of 47 receptors and ionophores. The assay can be described thus: CEREP screen on a panel of 47 receptors and binding sites. The following applies: all targets except CB2 receptors, Kv channels, 5-HT3 and 5-HT1B receptors. How it is done:
Table 1 represents pharmacological profiling of convolamine which was tested at […] and 1 µM in in vitro binding assays designed with appropriate reference compounds in duplicates at CEREP facility.

Assay [2] has as its system Wfs1^ΔExon8 mice. The assay can be described thus: Spontaneous alternation in the Y-maze, Wolfram syndrome mouse model. Type of assay: in vivo. The conditions noted are these: 1 mg/Kg IP, 20 min before the Y-maze session. How it is done:
The Y-maze is made of grey polyvinylchloride. Each arm is 40 cm long, 13 cm high, 3 cm wide at the bottom, 10 cm wide at the top, and converging at an equal angle. Each mouse was placed at the end of one arm and allowed to move freely through the maze during an 8 min session. The series of arm entries, including possible returns into the same arm, were checked visually. An alternation is defined as entries into all three arms on consecutive occasions. The number of maximum alternations is therefore the total number of arm entries minus two and the percentage of alternation was calculated as (actual alternations / maximum alternations) × 100 (Maurice et al., 1996; Meunier et al., 2006, 2013). Exclusion criteria are locomotion < 10 or percentage of alternation < 25% or > 90%. Animals showing these readouts are excluded from the calculations. Attrition is routinely < 5% in this test.

Assay [3] relates to Wfs1^ΔExon8 mice. The assay can be described thus: Active avoidance in the rectangular water-maze, Wolfram syndrome mouse model. Type of assay: in vivo. How it is done:
Non-spatial long-term memory was also examined using the successive training, place-learning procedure in the rectangular water-maze (Maurice et al., 1995, 2018). The apparatus is a black Plexiglas rectangular pool (30 × 60 × 36 cm high), filled with water at a high of 25 cm. The water temperature was maintained at 23 ± 1°C. A transparent Plexiglas platform (5 × 8.5 × 0.5 cm) was fixed in the southeast corner of the pool, 1 cm below the water surface. On acquisition days 1 and 2, each mouse was placed at the middle of the west side of the pool, facing the wall, and the latency to find the platform was recorded up to 60 s. The mouse was allowed to remain on it for 20 s, and then removed from the pool into its home cage. […] Each animal was run in this manner for a total of 5 trials on day 1, and 3 trials on day 2. […] A short-term memory (STM) index was defined as the mean difference in swimming duration between trial n and trial n-1 for trials 2 to 5 and 7 to 8. The STM index was analysed vs. zero level (= no improvement). On day 4, 48 h after the last training session, animals were tested for retention. The platform was removed. Each mouse was again placed at the starting point and observed for 60 s. The latency to reach the original platform location and the time spent on the platform location was recorded.

The test system of assay [4] is Aβ25-35-induced learning impairments in mice. Description: Step-through passive avoidance, Aβ25-35 model of Alzheimer's disease. The following applies: 0.3-3 mg/kg IP, single administration on day 1. Type of assay: in vivo. The procedure: Amyloid-β[25-35] peptide (Aβ25-35) was from Eurogentec (Angers, France). It was solubilized in distilled water at 3 mg/ml and stored at -20°C until use. Before injection, the peptide was incubated at 37°C for 4 days, allowing oligomerization. Control injection was performed with vehicle solution (distilled water), and intracerebroventricularly (ICV) injections were done as described previously (Maurice et al., 1996, 2019).
The apparatus is a two-compartments (15 × 20 × 15 cm high) box with one illuminated with white polyvinylchloride walls and the other darkened with black polyvinylchloride walls and a grid floor. A guillotine door separates each compartment. A 60 W lamp positioned 40 cm above the apparatus lights up the white compartment during the experiment. Scrambled foot shocks (0.3 mA for 3 s) could be delivered to the grid floor using a shock generator scrambler (Lafayette Instruments, Lafayette, USA). The guillotine door was initially closed during the training session. Each mouse was placed into the white compartment. After 5 s, the door was raised. […] The step-through latency (STL-Tg), that is, the latency spent to enter the darkened compartment, and the number of vocalizations were recorded. […] The step-through latency (STL-R) was recorded up to 300 s (Meunier et al., 2006, 2013; Villard et al., 2009, 2011). […] Animals showing these readouts are excluded from the calculations. […]

Setting [5] is: probe test without platform, no drug injection.

We go through one compound from EP4523686A1, “A SIGMA-1 RECEPTOR POSITIVE MODULATOR FOR ITS USE IN THE PREVENTION AND THE TREATMENT OF A PATHOLOGY” (priority 2023, dated 2025).

The structures appear in SMILES notation.

T1 sequence (Q99720 whole entry): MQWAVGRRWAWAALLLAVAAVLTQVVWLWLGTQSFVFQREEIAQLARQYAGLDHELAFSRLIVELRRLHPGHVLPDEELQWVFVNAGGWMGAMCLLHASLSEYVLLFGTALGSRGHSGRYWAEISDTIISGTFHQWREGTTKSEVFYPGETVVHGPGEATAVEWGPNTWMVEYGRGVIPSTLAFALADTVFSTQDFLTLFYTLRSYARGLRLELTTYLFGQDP

One may read the IC50 as the concentration that gives 50% inhibition. Read a low IC50 as inhibition by little substance. Take `COc1ccc(C(=O)OC2CC3CCC(C2)N3C)cc1OC` (stereo not shown) [Convolamine, (8-methyl-8-azabicyclo[3.2.1]octan-3-yl) 3,4-dimethoxybenzoate]: on SIG-1R, the IC50 was above 30 µM and the “inhibition of the binding / displacement of SIG-1R radioligand (in words)” value was “did not inhibit”. The “inhibition of [3H](+)-pentazocine binding to SIG-1R (in words)” value on SIG-1R (at concentrations < 10 µM) is recorded as “failed to inhibit”. The “inhibition of the binding / displacement of SIG-1R radioligand (in words)” value on SIG-1R (listed as convolamine) is recorded as “does not displace”. Further, the “activity on the panel of 47 receptors and ionophores (in words)” value in assay [1] was “inactive”. For the same compound, the “alteration of spontaneous alternation (in words)” value with Wfs1^ΔExon8 mice [2] is listed as “significantly attenuated”. In the assay with Wfs1^ΔExon8 mice [3] (IP 20 min before training sessions), the “mild deficit of STM index (in words)” value is “not observed”. For the same compound, in the assay with Wfs1^ΔExon8 mice [3] (setting [5]), the “latency to reach the platform location in the probe test (in words)” value is on record as “attenuated these differences” and the “number of platform location crossings in the probe test (in words)” value is reported as “attenuated these differences”. Moreover, the “Aβ25-35-induced deficit in the passive avoidance test (in words)” value in assay [4] is given as “not effective”.
